Test results published in patent US10150760B2, “Compounds for use in preparing heterocyclic triazole agonists of the APJ receptor” (AMGEN INC., priority 2016, dated 2018).
pEC50: −log10 of the molar value.

Target: human APJ receptor (Homo sapiens (Human), UniProt P35414)
Test: [35S]GTPγS binding assay on membranes from CHO cells stably expressing human APJ receptor
Format: biochemical
Conditions: read-out: Activity hAPJ SPA EC50 IP
Method in brief: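 Agonist-driven [35S]GTPγS (0.2 nM) binding was measured over 90 min at room temperature on human APJ-expressing CHO membranes with bead capture, in buffer containing 3 μM GDP, 200 mM NaCl and 5 mM MgCl2 (pH 7.5). Excess unlabelled GTPγS (100 μM) gave nonspecific signal; EC50 from non-linear fits.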

Chain of human APJ receptor (P35414 whole entry): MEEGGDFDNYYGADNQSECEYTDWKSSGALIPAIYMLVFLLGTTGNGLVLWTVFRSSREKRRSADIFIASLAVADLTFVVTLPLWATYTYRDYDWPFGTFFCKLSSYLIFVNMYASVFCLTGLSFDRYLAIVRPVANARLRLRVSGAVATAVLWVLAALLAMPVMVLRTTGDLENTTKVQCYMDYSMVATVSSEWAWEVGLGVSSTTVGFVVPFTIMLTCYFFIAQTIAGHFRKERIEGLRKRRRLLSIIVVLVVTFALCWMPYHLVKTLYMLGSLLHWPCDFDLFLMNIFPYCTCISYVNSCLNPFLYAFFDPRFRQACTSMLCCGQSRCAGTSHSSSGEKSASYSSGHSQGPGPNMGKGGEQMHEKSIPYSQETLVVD

Q: How did the pEC50 turn out when “(1R,2S)-1-(5-chloropyrimidin-2-yl)-N-(4-(2,6-dimethoxyphenyl)-5-((3aR,6aR)-hexahydro-3aH-cyclopenta[b]furan-3a-yl)-4H-1,2,4-triazol-3-yl)-1-methoxypropane-2-sulfonamide or (1R,2S)-1-(5-chloropyrimidin-2-yl)-N-(4-(2,6-dimethoxyphenyl)-5-((3aS,6aS)-hexahydro-3aH-cyclopenta[b]furan-3a-yl)-4H-1,2,4-triazol-3-yl)-1-methoxypropane-2-sulfonamide [Example 347.0]” was run?
A: 6.44

Q: With “(1R,2S)-1-(5-chloropyrimidin-2-yl)-N-(4-(2,6-dimethoxyphenyl)-5-((R)-1,1-dioxidotetrahydrothiophen-3-yl)-4H-1,2,4-triazol-3-yl)-1-methoxypropane-2-sulfonamide or (1R,2S)-1-(5-chloropyrimidin-2-yl)-N-(4-(2,6-dimethoxyphenyl)-5-((S)-1,1-dioxidotetrahydrothiophen-3-yl)-4H-1,2,4-triazol-3-yl)-1-methoxypropane-2-sulfonamide [Example 187.0]” as the substance, how does the pEC50 read?
A: 6.46

Q: With “(1R,2S)-1-(5-chloropyrimidin-2-yl)-N-(4-(2,6-dimethoxyphenyl)-5-((R)-1,1-dioxidotetrahydrothiophen-3-yl)-4H-1,2,4-triazol-3-yl)-1-methoxypropane-2-sulfonamide or (1R,2S)-1-(5-chloropyrimidin-2-yl)-N-(4-(2,6-dimethoxyphenyl)-5-((S)-1,1-dioxidotetrahydrothiophen-3-yl)-4H-1,2,4-triazol-3-yl)-1-methoxypropane-2-sulfonamide [Example 188.0]” as the substance, how does the pEC50 read?
A: 6.66

Q: How did the pEC50 turn out when “(1R,2S)-1-(5-chloropyrimidin-2-yl)-N-(4-(2,6-dimethoxyphenyl)-5-((R)-1,4-dioxan-2-yl)-4H-1,2,4-triazol-3-yl)-1-methoxypropane-2-sulfonamide or (1R,2S)-1-(5-chloropyrimidin-2-yl)-N-(4-(2,6-dimethoxyphenyl)-5-((S)-1,4-dioxan-2-yl)-4H-1,2,4-triazol-3-yl)-1-methoxypropane-2-sulfonamide [Example 197.0]” was run?
A: 9.00

Q: “(1R,2S)-1-(5-chloropyrimidin-2-yl)-N-(4-(4,6-dimethoxypyrimidin-5-yl)-5-((R)-5,5-dimethyltetrahydrofuran-3-yl)-4H-1,2,4-triazol-3-yl)-1-methoxypropane-2-sulfonamide or (1R,2S)-1-(5-chloropyrimidin-2-yl)-N-(4-(4,6-dimethoxypyrimidin-5-yl)-5-((S)-5,5-dimethyltetrahydrofuran-3-yl)-4H-1,2,4-triazol-3-yl)-1-methoxypropane-2-sulfonamide [Example 315.0]” was tested. Which pEC50 did it give?
A: 7.07

Q: How did the pEC50 turn out when “(1R,2S)-1-(5-chloropyrimidin-2-yl)-N-(4-(4,6-dimethoxypyrimidin-5-yl)-5-((R)-5,5-dimethyltetrahydrofuran-3-yl)-4H-1,2,4-triazol-3-yl)-1-methoxypropane-2-sulfonamide or (1R,2S)-1-(5-chloropyrimidin-2-yl)-N-(4-(4,6-dimethoxypyrimidin-5-yl)-5-((S)-5,5-dimethyltetrahydrofuran-3-yl)-4H-1,2,4-triazol-3-yl)-1-methoxypropane-2-sulfonamide [Example 316.0]” was run?
A: 7.59

Q: “(1R,2S)-1-(5-chloropyrimidin-2-yl)-N-(5-((R)-2,3-dihydrobenzo[b][1,4]dioxin-2-yl)-4-(2,6-dimethoxyphenyl)-4H-1,2,4-triazol-3-yl)-1-methoxypropane-2-sulfonamide or (1R,2S)-1-(5-chloropyrimidin-2-yl)-N-(5-((S)-2,3-dihydrobenzo[b][1,4]dioxin-2-yl)-4-(2,6-dimethoxyphenyl)-4H-1,2,4-triazol-3-yl)-1-methoxypropane-2-sulfonamide [Example 258.0]” was tested. Which pEC50 did it give?
A: 7.48

Q: With “(1R,2S)-1-(5-chloropyrimidin-2-yl)-N-(5-((R)-2,3-dihydrobenzo[b][1,4]dioxin-2-yl)-4-(2,6-dimethoxyphenyl)-4H-1,2,4-triazol-3-yl)-1-methoxypropane-2-sulfonamide or (1R,2S)-1-(5-chloropyrimidin-2-yl)-N-(5-((S)-2,3-dihydrobenzo[b][1,4]dioxin-2-yl)-4-(2,6-dimethoxyphenyl)-4H-1,2,4-triazol-3-yl)-1-methoxypropane-2-sulfonamide [Example 259.0]” as the substance, how does the pEC50 read?
A: 7.06

Q: With “(1R,2S)-1-(5-chloropyrimidin-2-yl)-N-(5-((S)-5,5-dimethyltetrahydrofuran-2-yl)-4-(tetrahydro-2H-pyran-4-yl)-4H-1,2,4-triazol-3-yl)-1-methoxypropane-2-sulfonamide or (1R,2S)-1-(5-chloropyrimidin-2-yl)-N-(5-((R)-5,5-dimethyltetrahydrofuran-2-yl)-4-(tetrahydro-2H-pyran-2-yl)-4H-1,2,4-triazol-3-yl)-1-methoxypropane-2-sulfonamide [Example 221.0]” as the substance, how does the pEC50 read?
A: 6.25

Q: With “(1R,2S)-N-(4-(1,3-dimethoxy-2-propanyl)-5-((2R,5R)-5-methyltetrahydro-2-furanyl)-4H-1,2,4-triazol-3-yl)-1-methoxy-1-(5-methoxy-2-pyrazinyl)-2-propanesulfonamide or (1R,2S)-N-(4-(1,3-dimethoxy-2-propanyl)-5-((2S,5S)-5-methyltetrahydro-2-furanyl)-4H-1,2,4-triazol-3-yl)-1-methoxy-1-(5-methoxy-2-pyrazinyl)-2-propanesulfonamide [Example 378.0]” as the substance, how does the pEC50 read?
A: 6.77

Q: “(1R,2S)-N-(4-(1,3-dimethoxy-2-propanyl)-5-((2R,5R)-5-methyltetrahydro-2-furanyl)-4H-1,2,4-triazol-3-yl)-1-methoxy-1-(5-methoxy-2-pyrazinyl)-2-propanesulfonamide or (1R,2S)-N-(4-(1,3-dimethoxy-2-propanyl)-5-((2S,5S)-5-methyltetrahydro-2-furanyl)-4H-1,2,4-triazol-3-yl)-1-methoxy-1-(5-methoxy-2-pyrazinyl)-2-propanesulfonamide [Example 379.0]” was tested. Which pEC50 did it give?
A: 7.68

Q: With “(1R,2S)-N-(4-(2,6-dimethoxyphenyl)-5-((R)-1,4-dioxan-2-yl)-4H-1,2,4-triazol-3-yl)-1-ethoxy-1-(5-methylpyrimidin-2-yl)propane-2-sulfonamide or (1R,2S)-N-(4-(2,6-dimethoxyphenyl)-5-((S)-1,4-dioxan-2-yl)-4H-1,2,4-triazol-3-yl)-1-ethoxy-1-(5-methylpyrimidin-2-yl)propane-2-sulfonamide [Example 203.0]” as the substance, how does the pEC50 read?
A: 7.48

Q: How did the pEC50 turn out when “(1R,2S)-N-(4-(2,6-dimethoxyphenyl)-5-((R)-1,4-dioxan-2-yl)-4H-1,2,4-triazol-3-yl)-1-ethoxy-1-(5-methylpyrimidin-2-yl)propane-2-sulfonamide or (1R,2S)-N-(4-(2,6-dimethoxyphenyl)-5-((S)-1,4-dioxan-2-yl)-4H-1,2,4-triazol-3-yl)-1-ethoxy-1-(5-methypyrimidin-2-yl)propane-2-sulfonamide [Example 204.0]” was run?
A: 7.00

Q: “(1R,2S)-N-(4-(2,6-dimethoxyphenyl)-5-((R)-1,4-dioxan-2-yl)-4H-1,2,4-triazol-3-yl)-1-methoxy-1-(5-methylpyrimidin-2-yl)propane-2-sulfonamide or (1R,2S)-N-(4-(2,6-dimethoxyphenyl)-5-((S)-1,4-dioxan-2-yl)-4H-1,2,4-triazol-3-yl)-1-methoxy-1-(5-methylpyrimidin-2-yl)propane-2-sulfonamide [Example 202.0]” was tested. Which pEC50 did it give?
A: 6.92

Q: How did the pEC50 turn out when “(1R,2S)-N-(4-(2,6-dimethoxyphenyl)-5-((S)-3-oxoisoindolin-1-yl)-4H-1,2,4-triazol-3-yl)-1-methoxy-1-(5-methylpyrimidin-2-yl)propane-2-sulfonamide or (1R,2S)-N-(4-(2,6-dimethoxyphenyl)-5-((R)-3-oxoisoindolin-1-yl)-4H-1,2,4-triazol-3-yl)-1-methoxy-1-(5-methylpyrimidin-2-yl)propane-2-sulfonamide [Example 236.0]” was run?
A: < 5.38

Q: With “(1R,2S)-N-(4-(2,6-dimethoxyphenyl)-5-((S)-3-oxoisoindolin-1-yl)-4H-1,2,4-triazol-3-yl)-1-methoxy-1-(5-methylpyrimidin-2-yl)propane-2-sulfonamide or (1R,2S)-N-(4-(2,6-dimethoxyphenyl)-5-((R)-3-oxoisoindolin-1-yl)-4H-1,2,4-triazol-3-yl)-1-methoxy-1-(5-methylpyrimidin-2-yl)propane-2-sulfonamide [Example 237.0]” as the substance, how does the pEC50 read?
A: 6.23

Q: With “(1R,2S)-N-(4-(2,6-dimethoxyphenyl)-5-((S)-tetrahydro-2H-pyran-3-yl)-4H-1,2,4-triazol-3-yl)-1-hydroxy-1-(5-methylpyrimidin-2-yl)propane-2-sulfonamide or (1R,2S)-N-(4-(2,6-dimethoxyphenyl)-5-((R)-tetrahydro-2H-pyran-3-yl)-4H-1,2,4-triazol-3-yl)-1-hydroxy-1-(5-methylpyrimidin-2-yl)propane-2-sulfonamde [Example 194.0]” as the substance, how does the pEC50 read?
A: 7.70

Q: “(1R,2S)-N-(4-(2,6-dimethoxyphenyl)-5-((S)-tetrahydro-2H-pyran-3-yl)-4H-1,2,4-triazol-3-yl)-1-hydroxy-1-(5-methylpyrimidin-2-yl)propane-2-sulfonamide or (1R,2S)-N-(4-(2,6-dimethoxyphenyl)-5-((R)-tetrahydro-2H-pyran-3-yl)-4H-1,2,4-triazol-3-yl)-1-hydroxy-1-(5-methylpyrimidin-2-yl)propane-2-sulfonamide [Example 193.0]” was tested. Which pEC50 did it give?
A: 6.74

Q: With “(1R,2S)-N-(4-(4,6-dimethoxypyrimidin-5-yl)-5-((S)-tetrahydrofuran-2-yl)-4H-1,2,4-triazol-3-yl)-1-methoxy-1-(5-methylpyrazin-2-yl)propane-2-sulfonamide or (1R,2S)-N-(4-(4,6-dimethoxypyrimidin-5-yl)-5-((R)-tetrahydrofuran-2-yl)-4H-1,2,4-triazol-3-yl)-1-methoxy-1-(5-methylpyrazin-2-yl)propane-2-sulfonamide [Example 185.0]” as the substance, how does the pEC50 read?
A: 6.29
